{"source": "ChEMBL document CHEMBL1149062", "about": "“A Sesquiterpene Quinone and Hydroquinone from the Southern Australian Marine Sponge, Thorecta choanoides” (J Nat Prod, 1994)", "tested_on": "Human immunodeficiency virus", "experiment": "Antiviral activity against HIV assessed as inhibition of viral replication", "format": "functional, organism-based", "note": "Activity calls are given as the source filed them. No cut-off for these calls is given here."}
{"smiles": "COC1=CC(=O)C=C(C/C=C(\\C)CC/C=C(\\C)CCC=C(C)C)C1=O", "values": [{"measurement": "Activity", "result": "inactive"}]}
{"smiles": "COc1cc(O)cc(C/C=C(\\C)CC/C=C(\\C)CCC=C(C)C)c1O", "values": [{"measurement": "Activity", "result": "inactive"}]}
